{"source": "patent US8552064B2", "about": "“Suramin and derivatives thereof as topical microbicide and contraceptive” (Eastern Virginia Medical School, priority 2005, dated 2013)", "key": {"CaSki cells": {"test_system": "CaSki cells", "experiment": "Cytotoxicity in the anti-herpes study", "format": "cell-based, human", "conditions": "highest concentration tested (1000 μg/mL)"}, "[1]": {"test_system": "human sperm, zona-free hamster eggs", "experiment": "Hamster-egg penetration test (HEPT)", "format": "cell-based", "method": "The hamster-egg penetration test (HEPT) was used to predict the fertilizing ability of human sperm by evaluating the sperm's ooctye-penetration capability as described in Yanagimachi R. et al., Biol. Reprod., 15: 471-6 (1976). The zona pellucida of hamster eggs was dissolved by treatment with a protease, and human sperm were subsequently added to the zona free eggs. Sperm binding and penetration were assessed under a standard microscope (60× magnification) after placing the sperm-egg complexes onto polylysine-coated glass slides and covered them with 22×22 mm glass coverslips. The ability of the sperm to bind and enter the egg was scored by counting the sperm nuclei lying within the egg cytoplasm. The effect of the test compound was determined by comparing the number of sperm bound to the surface of the eggs and the percentage of penetrated eggs."}, "rabbit sperm": {"test_system": "rabbit sperm", "experiment": "Rabbit contraceptive efficacy, intravaginal application", "format": "in vivo", "method": "Semen was collected from New Zealand White (NZW) male rabbits with the aid of an artifical vagina, pooled and adjusted with a modified Tyrode's albumin lactate pyruvate (TALP) medium to 50 million motile sperm per milliliter. Ovulation was induced in females by injection of 200 IU of human chorionic gonadotropin (hCG) intravenously. Under the ex-vivo (in-vitro) mixing protocol, sperm were incubated with indicated suramin test compounds in a tube for 15 minutes at 37° C. prior to insemination (0.5 mL) as described in Anderson R. A., et al. J. Androl., 21: 862-875 (2000). […] Sperm-compound contact, in this case, took place in vivo, inside the vagina. Insemination and administration of the compound was performed with a flexible, 12 cm long polyurethane catheter. The main endpoints for both protocols were the number of implantation sites counted 11 days after insemination and pregnancy rate. Such sites were counted by visual inspection of the tubes."}}, "data": [{"smiles": "Cc1ccc(C(=O)Nc2ccc(S(=O)(=O)O)c3cc(S(=O)(=O)O)cc(S(=O)(=O)O)c23)cc1NC(=O)c1cccc(NC(=O)Nc2cccc(C(=O)Nc3cc(C(=O)Nc4ccc(S(=O)(=O)O)c5cc(S(=O)(=O)O)cc(S(=O)(=O)O)c45)ccc3C)c2)c1", "note": "[Suramin, 8,8′-(carbonylbis(imino-3,1-phenylenecarbonylimino(4-methyl-3,1-phenylene)carbonylimino))bis-1,3,5-naphthalene trisulfonic acid]", "values": [{"measurement": "cytotoxicity", "setting": "CaSki cells", "result": "not being significantly cytotoxic"}, {"measurement": "Potency, Oolemma binding/Penetration (HEPT)", "setting": "[1]", "result": "High"}, {"measurement": "inhibition of penetration", "setting": "[1]", "result": 100, "unit": "%"}, {"measurement": "inhibition of sperm binding to hamster zona-free oocytes", "setting": "[1]", "result": 75, "unit": "%"}, {"measurement": "sperm penetration/fertilization of zona-free eggs", "setting": "[1]; n=28 oocytes", "result": "completely abolished sperm penetration/fertilization"}, {"measurement": "inhibition (contraceptive), Vaginal Application", "setting": "rabbit sperm; 1.25% in Replens", "result": 100, "unit": "% inhibition"}, {"measurement": "inhibition, Vaginal Application", "setting": "rabbit sperm; 2%", "result": 44, "unit": "% at 2%"}, {"measurement": "inhibition, Vaginal Application Combo", "setting": "rabbit sperm; 2% suramin + 2% sorbitan mono laurate or 0.1% N-9", "result": 100, "unit": "% inhibition at"}, {"measurement": "reduction in PR", "setting": "rabbit sperm; 5%, intravaginal administration", "result": 75, "unit": "% inhibition"}, {"measurement": "Potency, Contraception, rabbit inseminated sperm (Vaginal Application)", "setting": "rabbit sperm; rabbit, in vivo", "result": "Moderate"}, {"measurement": "Potency, Vaginal Application Combo", "setting": "rabbit sperm; rabbit, in vivo", "result": "High"}, {"measurement": "Potency, Vaginal Application, Replens", "setting": "rabbit sperm; rabbit, in vivo", "result": "High"}]}]}
